According to patent publication US20230257372A1 (CHONG KUN DANG PHARMACEUTICAL CORP., priority 2020, published 2023):
Read-outs that look alike come from different tables or passages of the source.

Assays:
human recombinant HDAC6 = target: T1, human recombinant HDAC6 (Homo sapiens, UniProt Q9UBN7); assay: HDAC6 enzyme activity inhibition (HDAC Fluorimetric Drug Discovery Kit); assay type: biochemical
T1 construct: purchased Calbiochem Inc. 382180
T1 sequence (Q9UBN7 1-1215): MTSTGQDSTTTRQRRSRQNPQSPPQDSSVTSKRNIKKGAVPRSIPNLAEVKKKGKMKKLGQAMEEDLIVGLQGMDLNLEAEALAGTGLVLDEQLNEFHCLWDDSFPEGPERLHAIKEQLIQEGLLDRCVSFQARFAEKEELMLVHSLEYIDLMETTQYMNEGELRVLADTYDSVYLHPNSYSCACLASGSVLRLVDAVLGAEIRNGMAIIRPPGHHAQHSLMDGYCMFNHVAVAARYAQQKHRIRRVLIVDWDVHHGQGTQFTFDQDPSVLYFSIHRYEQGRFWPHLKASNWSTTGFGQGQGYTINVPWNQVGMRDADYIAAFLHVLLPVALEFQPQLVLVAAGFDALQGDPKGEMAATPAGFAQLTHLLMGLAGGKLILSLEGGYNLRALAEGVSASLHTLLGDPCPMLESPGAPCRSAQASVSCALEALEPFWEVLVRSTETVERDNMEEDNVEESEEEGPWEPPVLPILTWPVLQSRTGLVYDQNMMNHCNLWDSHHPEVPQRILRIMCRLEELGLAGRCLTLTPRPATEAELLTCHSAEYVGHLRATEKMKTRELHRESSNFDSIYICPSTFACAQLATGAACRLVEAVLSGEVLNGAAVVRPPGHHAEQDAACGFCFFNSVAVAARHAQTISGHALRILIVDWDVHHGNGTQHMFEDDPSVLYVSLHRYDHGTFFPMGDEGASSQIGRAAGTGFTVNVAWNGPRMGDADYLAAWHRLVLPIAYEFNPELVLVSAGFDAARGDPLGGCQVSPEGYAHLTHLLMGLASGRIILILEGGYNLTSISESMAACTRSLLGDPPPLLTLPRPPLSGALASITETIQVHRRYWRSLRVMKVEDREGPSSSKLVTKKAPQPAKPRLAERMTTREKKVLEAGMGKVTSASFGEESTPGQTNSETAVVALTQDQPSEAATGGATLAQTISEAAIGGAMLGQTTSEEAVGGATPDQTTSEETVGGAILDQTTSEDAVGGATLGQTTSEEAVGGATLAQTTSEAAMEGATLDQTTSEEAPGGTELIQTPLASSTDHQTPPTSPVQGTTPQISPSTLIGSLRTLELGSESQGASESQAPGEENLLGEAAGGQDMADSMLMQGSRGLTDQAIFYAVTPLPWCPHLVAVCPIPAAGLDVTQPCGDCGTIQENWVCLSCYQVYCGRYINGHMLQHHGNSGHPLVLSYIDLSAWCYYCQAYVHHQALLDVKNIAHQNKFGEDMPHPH
Outline: (§1)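 Compounds in 5-fold dilution series were incubated with […] enzyme and 10 μM substrate at 30° C for 60 minutes. Fluor de Lys Developer II was then added for 30 minutes to stop the reaction and develop the fluorescent signal.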

human recombinant HDAC1 = target: T2, human recombinant HDAC1 (Homo sapiens, UniProt Q13547); assay: HDAC1 enzyme activity inhibition (HDAC Fluorimetric Drug Discovery Kit); assay type: biochemical; details: read-out: HDAC1
T2 construct: purchased Enzo Life Science, Inc. BML-SE456
Outline: as §1

[1] = human recombinant HDAC6, same protocol as HDAC1
[2] = human recombinant HDAC1, Fluor de Lys substrate, 30° C. 60 minutes
[3] = human recombinant HDAC6, IC50 calculated with GraphPad Prism
[4] = human recombinant HDAC1, IC50 calculated with GraphPad Prism

T2 sequence (Q13547 whole entry): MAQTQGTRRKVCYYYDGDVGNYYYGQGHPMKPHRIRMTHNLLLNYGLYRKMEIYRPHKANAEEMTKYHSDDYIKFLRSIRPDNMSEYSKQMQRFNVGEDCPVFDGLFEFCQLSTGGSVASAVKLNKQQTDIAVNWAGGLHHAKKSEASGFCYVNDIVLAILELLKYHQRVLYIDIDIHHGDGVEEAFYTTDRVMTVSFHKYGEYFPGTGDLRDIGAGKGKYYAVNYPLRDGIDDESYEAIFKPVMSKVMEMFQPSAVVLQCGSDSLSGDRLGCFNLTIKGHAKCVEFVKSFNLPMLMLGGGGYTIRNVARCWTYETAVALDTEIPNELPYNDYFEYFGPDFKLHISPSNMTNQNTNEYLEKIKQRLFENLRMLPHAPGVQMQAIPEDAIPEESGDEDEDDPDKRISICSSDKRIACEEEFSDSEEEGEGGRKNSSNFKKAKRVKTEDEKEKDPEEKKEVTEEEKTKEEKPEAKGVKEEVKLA

Row | Compound | HDAC6 selectivity (fold) (human recombinant HDAC6; HDAC6 over HDAC1) | IC50 (human recombinant HDAC6; [1]) [nM] | IC50 (human recombinant HDAC1; [2]) [nM] | HDAC6 selectivity (fold) (human recombinant HDAC6; HDAC1 IC50 / HDAC6 IC50) | IC50 (human recombinant HDAC6; [3]) [nM] | IC50 (human recombinant HDAC1; [4]) [nM]
1 | OCc1c(-c2ccccc2)nnn1Cc1ccc(-c2nnc(C(F)F)o2)cn1 [Compound 4478, (1-((5-(5-(difluoromethyl)-1,3,4-oxadiazol-2-yl)pyridin-2-yl)methyl)-4-phenyl-1H-1,2,3-triazol-5-yl)methanol] | – | – | – | 437 | 114 | > 50000
2 | Fc1cc(-c2nnc(C(F)F)o2)ccc1Cn1cc(-c2ccc(N3CCNCC3)cc2F)nn1 [Compound 16797, 2-(difluoromethyl)-5-(3-fluoro-4-((4-(2-fluoro-4-(piperazin-1-yl)phenyl)-1H-1,2,3-triazol-1-yl)methyl)phenyl)-1,3,4-oxadiazole] | 738 | 67.7 | > 50000 | – | – | –
3 | FC(F)c1nnc(-c2ccc(Cn3cc(-c4cncnc4)nn3)nc2)o1 [Compound 3960, 2-(difluoromethyl)-5-(6-((4-(pyrimidin-5-yl)-1H-1,2,3-triazol-1-yl)methyl)pyridin-3-yl)-1,3,4-oxadiazole] | – | – | – | 473 | 105 | > 50000
4 | FC(F)c1nnc(-c2ccc(Cn3cc(-c4cccc(N5CCOCC5)c4)nn3)cc2)o1 [Compound 4338, 4-(3-(1-(4-(5-(difluoromethyl)-1,3,4-oxadiazol-2-yl)benzyl)-1H-1,2,3-triazol-4-yl)phenyl)morpholine] | – | – | – | 765 | 65.3 | > 50000
5 | Fc1ccc(N2CCN(C3COC3)CC2)cc1-c1cn(Cc2ccc(-c3nnc(C(F)F)o3)cc2)nn1 [Compound 4455, 2-(difluoromethyl)-5-(4-((4-(2-fluoro-5-(4-(oxetan-3-yl)piperazin-1-yl)phenyl)-1H-1,2,3-triazol-1-yl)methyl)phenyl)-1,3,4-oxadiazole] | – | – | – | 520 | 96.1 | > 50000
6 | Fc1cc(-c2nnc(C(F)F)o2)ccc1Cn1cc(-c2cccc(NC3COC3)c2)nn1 [Compound 4332, N-(3-(1-(4-(5-(difluoromethyl)-1,3,4-oxadiazol-2-yl)-2-fluorobenzyl)-1H-1,2,3-triazol-4-yl)phenyl)oxetan-3-amine] | – | – | – | 1201 | 41.6 | > 50000
7 | FC(F)c1nnc(-c2ccc(Cn3cc(-c4ccc(N5CCOCC5)cc4)nn3)nc2)o1 [Compound 4105, 4-(4-(1-((5-(5-(difluoromethyl)-1,3,4-oxadiazol-2-yl)pyridin-2-yl)methyl)-1H-1,2,3-triazol-4-yl)phenyl)morpholin] | – | – | – | 979 | 34.7 | 34000
8 | CCN1CCc2ccc(-c3cn(Cc4ccc(-c5nnc(C(F)F)o5)cc4F)nn3)cc2C1 [Compound 4364, 2-(difluoromethyl)-5-(4-((4-(2-ethyl-1,2,3,4-tetrahydroisoquinolin-7-yl)-1H-1,2,3-triazol-1-yl)methyl)-3-fluorophenyl)-1,3,4-oxadiazole] | – | – | – | 1160 | 43.1 | > 50000
9 | CN1CCc2ccc(-c3cn(Cc4ncc(-c5nnc(C(F)F)o5)cc4F)nn3)cc2C1 [Compound 19002, 2-(difluoromethyl)-5-(5-fluoro-6-((4-(2-methyl-1,2,3,4-tetrahydroisoquinolin-7-yl)-1H-1,2,3-triazol-1-yl)methyl)pyridin-3-yl)-1,3,4-oxadiazole] | 587 | 85.1 | > 50000 | – | – | –
10 | CN1C[C@@H]2C[C@H]1CN2c1cccc(-c2cn(Cc3ccc(-c4nnc(C(F)F)o4)cc3)nn2)c1 [Compound 4320, 2-(difluoromethyl)-5-(4-((4-(3-((1S,4S)-5-methyl-2,5-diazabicyclo[2.2.1]heptan-2-yl)phenyl)-1H-1,2,3-triazol-1-yl)methyl)phenyl)-1,3,4-oxadiazole] | – | – | – | 719 | 69.5 | > 50000
11 | CN(C)C1CCN(Cc2ccc(-c3cn(Cc4ccc(-c5nnc(C(F)F)o5)cc4)nn3)cc2)CC1 [Compound 4554, 1-(4-(1-(4-(5-(difluoromethyl)-1,3,4-oxadiazol-2-yl)benzyl)-1H-1,2,3-triazol-4-yl)benzyl)-N,N-dimethylpiperidin-4-amine] | 773 | 64.6 | > 50000 | – | – | –

The remaining lines, values ahead:

Row | HDAC6 selectivity (fold) (human recombinant HDAC6; HDAC6 over HDAC1) | IC50 (human recombinant HDAC6; [1]) [nM] | IC50 (human recombinant HDAC1; [2]) [nM] | HDAC6 selectivity (fold) (human recombinant HDAC6; HDAC1 IC50 / HDAC6 IC50) | IC50 (human recombinant HDAC6; [3]) [nM] | IC50 (human recombinant HDAC1; [4]) [nM] | Compound
12 | 1779 | 28.1 | > 50000 | – | – | – | Fc1cc(-c2nnc(C(F)F)o2)ccc1Cn1cc(-c2cccc(C3CN(C4CCC4)C3)c2)nn1 [Compound 4507]
13 | 556 | 89.8 | > 50000 | – | – | – | Fc1cc(-c2nnc(C(F)F)o2)ccc1Cn1cc(-c2ccc(CN3CC[C@H](F)C3)s2)nn1 [Compound 17916]
14 | 3571 | 14 | > 50000 | – | – | – | FC(F)c1nnc(-c2ccc(Cn3cc(-c4ccc(CN5CC6(COC6)C5)cc4)nn3)nc2)o1 [Compound 4561, 6-(4-(1-((5-(5-(difluoromethyl)-1,3,4-oxadiazol-2-yl)pyridin-2-yl)methyl)-1H-1,2,3-triazol-4-yl)benzyl)-2-oxa-6-azaspiro[3.3]heptane]
15 | 4504 | 11.1 | > 50000 | – | – | – | Fc1cc(-c2nnc(C(F)F)o2)ccc1Cn1cc(-c2ccc(CN3CC4(COC4)C3)cc2)nn1 [Compound 4523, 6-(4-(1-(4-(5-(difluoromethyl)-1,3,4-oxadiazol-2-yl)-2-fluorobenzyl)-1H-1,2,3-triazol-4-yl)benzyl)-2-oxa-6-azaspiro[3.3]heptane]
16 | 782 | 63.9 | > 50000 | – | – | – | CCN1Cc2cccc(-c3cn(Cc4ccc(-c5nnc(C(F)F)o5)cn4)nn3)c2C1 [Compound 4596, 2-(difluoromethyl)-5-(6-((4-(2-ethylisoindolin-4-yl)-1H-1,2,3-triazol-1-yl)methyl)pyridin-3-yl)-1,3,4-oxadiazole]
17 | – | – | – | 2415 | 20.7 | > 50000 | O=c1[nH]cccc1-c1cn(Cc2ccc(-c3nnc(C(F)F)o3)cn2)nn1 [Compound 3844, 3-(1-((5-(5-(difluoromethyl)-1,3,4-oxadiazol-2-yl)pyridin-2-yl)methyl)-1H-1,2,3-triazol-4-yl)pyridin-2(1H)-one]
18 | – | – | – | 460 | 108 | > 50000 | Fc1cc(-c2nnc(C(F)F)o2)ccc1Cn1cc(-c2ccc(F)c(N3C[C@@H]4C[C@H]3CN4)c2)nn1 [Compound 4399, 2-(4-((4-(3-((1S,4S)-2,5-diazabicyclo[2.2.1]heptan-2-yl)-4-fluorophenyl)-1H-1,2,3-triazol-1-yl)methyl)-3-fluorophenyl)-5-(difluoromethyl)-1,3,4-oxadiazole]
19 | 1012 | 49.4 | > 50000 | – | – | – | Fc1cc(-c2nnc(C(F)F)o2)ccc1Cn1cc(-c2cn[nH]c2)nn1 [Compound 17261, 2-(4-((4-(1H-pyrazol-4-yl)-1H-1,2,3-triazol-1-yl)methyl)-3-fluorophenyl)-5-(difluoromethyl)-1,3,4-oxadiazole]
20 | 603 | 82.9 | > 50000 | – | – | – | Fc1cc(-c2nnc(C(F)F)o2)ccc1Cn1cc(-c2ccc(CN3CCC(F)(F)CC3)nc2)nn1 [Compound 17778, 2-(difluoromethyl)-5-(4-((4-(6-((4,4-difluoropiperidin-1-yl)methyl)pyridin-3-yl)-1H-1,2,3-triazol-1-yl)methyl)-3-fluorophenyl)-1,3,4-oxadiazole]
21 | 3164 | 15.8 | > 50000 | – | – | – | Fc1cc(-c2nnc(C(F)F)o2)ccc1Cn1cc(-c2ccc(CNC3CCCC3)cc2)nn1 [Compound 4609, N-(4-(1-(4-(5-(difluoromethyl)-1,3,4-oxadiazol-2-yl)-2-fluorobenzyl)-1H-1,2,3-triazol-4-yl)benzyl)cyclopentanamine]
